Source: patent publication US20210023223A1, “HYDROCARBON / LIPID - CAROTENOID COMPLEXES” (IP SCIENCE LIMITED, priority 2018, published 2021)

What was measured:
[1] = Size of lipid droplets of dairy butter, microscopy; assay type: physicochemical
Source text: (§1) For measurement of lipid droplets and fat globules and quantification of their size binocular microscope Olympus BX41 was used with Cell^B software for morphometric analysis. All parameters were collected from 10 randomly selected microscopic fields at ×1000).
Incorporation of lycopene into the butter led to a significant increase in the size of its lipid droplets and many reached more than 100 or even 300 fold of their diameter. This effect was dose-dependent, and can already be observed for less than 1 molecule of lycopene to 224,000 molecules of butter triglycerides.

[2] = Melting time at 37° C.; assay type: physicochemical; details: 1 mg per 1 g of the chocolate; control 19 minutes
Protocol: (§2) Approximately 20 mg of butter, or pork fat, or beef fat, or cocoa butter, or chocolate, with or without certain concentrations of carotenoids, were placed on the surface of the laboratory slides and incubated at 37° C. in a laboratory incubator (TLK39).
Results presented in FIG. 15 show three different carotenoids—lycopene, lutein and astaxanthin, can reduce, albeit to a different degree, the melting time of dark chocolate regardless of its tempering protocols: Protocol I—28° C., Protocol II—29° C., Protocol III—30° C.

[3] = system: healthy volunteers, facial skin; test: Astaxanthin trial, residual skin surface components (RSSC); assay type: in vivo, human; details: 4 mg daily, 4 weeks
Protocol: Group I—31 (17 male and 14 female subjects, 40-80 years of age) for astaxanthin intervention;
Group I—participants received 4 mg daily doses of formulated astaxanthin,
Daily dose of each carotenoid product was taken in one capsule with the main evening meal for 4 weeks (from day 1 to day 28 of the study).
For RSSC sample collection all participants of the study were requested to avoid facial hygienic manipulations for 24 hours before material collection, which was carried out in the morning. These samples were collected only before initiation of astaxanthin supplementation (day 0) and at the end of the study (day 29). RSSC sample collection and preparation was performed according to previously described procedures. Briefly, RSSC samples were collected using polyester swabs from the surface of the facial skin (the sides of the nose). During the procedure two samples were taken (one swab per side). Each collected sample was placed on the surface of a microscope slide. A second microscope slide was pressed against the surface of the first one. […] All slides with collected samples (i.e. four slides per study participant per time point) were coded to provide sample anonymity for blinded analysis. All collected samples were sent to the laboratory of Lycotec Ltd for further processing and eventual microscopic examination.
For morphological analysis of RSSC samples one slide of the first pair was stained with hematoxylin and eosin in order to identify any cells or cell remnants. The second slide was stained using Oil Red O (Lipid Stain, ab150678, Abcam, Cambridge, UK) for lipid visualization and lipid droplet size evaluation. One slide from the other pair was stained with crystal violet solution (Gram staining) to assess the level of microorganism presence. The remaining slides were kept unstained for possible future use.
All stained smears were examined microscopically by a highly experienced cytopathologist. Microscopy was performed using Olympus BX41 laboratory microscope (Olympus, Japan) at ×1000 magnification.
The analysis included examining 40 fields of view within one smear. Dark field microscopy was applied for lipid crystal visualization. […]
The analysis of typical structural elements of the RSSC comprised lipid droplet measurements, counting characteristic lipid crystals and desquamated corneocytes, and evaluation of bacterial presence as previously described. The indicated micro objects/structures were quantified using Cell^B imaging software (Digital Imaging Solutions, Olympus, Japan). […]
In the morphological analysis of the RSSC quantitatively assessed parameters comprised lipid droplet size, numbers of desquamated corneocytes and lipid crystals and bacterial presence estimates (using Bacterial Presence Assessment Scale as described in our previous paper).

[4] = Oil volume needed to cover water surface; assay type: physicochemical; details: 100 ml water sample; unmodified oil 21.5 ml
Source text: The other way to assess changes in oil viscosity, caused by carotenoids, would be to measure how much oil would be needed to cover a water surface of the same size. The lower viscosity of the oil the more spreadable it will be, and consequently less of it would be needed to cover this surface. Therefore, by measuring how much oil would be required to cover a certain surface of water we can asses how deep changes in the lipid folding were made by incorporating carotenoids.
An additional nine heating experiments were carried out when either pure Napolina olive oil, Napolina olive oil containing Astaxanthin (7 mg/ml), or Napolina olive oil containing Lycopene (7 mg/ml) was carefully poured over the surface of the water in order to prevent evaporation. The amount of oil required to completely cover the surface of the 100 ml water sample in the cup (diameter—7.4 cm) was measured (15 ml Falcon laboratory tubes and 1 ml Pipetman pitettes were used) and recorded for each oil type. The thickness of the resulting oil film (necessary to completely cover water surface) was then calculated. Temperature change curves were compared for uncovered water and water samples overlayed with three varieties of oil at heating temperatures of 200° C., 250° C. and 300° C. Water samples overlaid with oils were heated until water reached boiling point (usually at 99° C.). […]

[5] = Size of pork fat globules, microscopy; assay type: physicochemical
Protocol: as §1
When carotenoids were added to animal fat, with a relatively high percentage of saturated fatty acid, a similar trend in increased fat globules was observed, although to a lesser degree. The maximum doses of lycopene or astaxanthin caused a similar increase in the pork fat globules diameter, only 50%, FIG. 2 and table 3.

[6] = Spreadability of fat drops on hard surface (viscosity); assay type: physicochemical
Protocol: The described above enlargement of lipid droplets or fat globules, caused by carotenoids, translated into reduction of the viscosity of their product. This could be visually observed without any instrumentation—the larger surface area is covered by spreading a drop of oil or molten fat to lower the viscosity of this food mass.
When astaxanthin was added to the dairy butter reduction its viscosity could be visually observed After measuring and comparing the size of the spread drops this decrease was estimated to be about 3, (FIG. 5).

[7] = Heating olive oil-in-water emulsions; assay type: physicochemical
[8] = Defrosting time of frozen oil; assay type: physicochemical
Protocol: To determined defrosting time, frozen oil aliquots of 200 μI were incubated at ambient temperature of 20±2 C° until they were completely melted. Period of time, which was required for the tested sample to be melted, was measured with a laboratory timer (QUANTUM).

[9] = Size of beef fat globules, microscopy; assay type: physicochemical
Source text: For measurement of lipid droplets and fat globules and quantification of their size binocular microscope Olympus BX41 was used with Cell^B software for morphometric analysis. All parameters were collected from 10 randomly selected microscopic fields at ×1000). In case of beef fat, lycopene incorporation led to a smaller increase of its fat globules, only by 30%, FIG. 3.

[10] = Melting time at 37° C.; assay type: physicochemical; details: 0.3 mg per 1 g of butter
Protocol: as §2

**Q.** For `CC1=C(/C=C/C(C)=C/C=C/C(C)=C/C=C/C=C(C)/C=C/C=C(C)/C=C/C2=C(C)C(=O)[C@@H](O)CC2(C)C)C(C)(C)C[C@H](O)C1=O` [Astaxanthin, astaxanthin], which Size of butter lipid droplets, Mean ([1]; astaxanthin dose 0.1 per 30 g of butter) is on record?
**A.** 7.44 µm

**Q.** And the Size of butter lipid droplets, Mean ([1]; astaxanthin dose 0.5 per 30 g of butter)?
**A.** 9.23 µm

**Q.** And the Size of butter lipid droplets, Mean ([1]; astaxanthin dose 1.0 per 30 g of butter)?
**A.** 12.4 µm

**Q.** What about the Size of butter lipid droplets, Mean ([1]; astaxanthin dose 2.0 per 30 g of butter) of the same compound?
**A.** 14.7 µm

**Q.** What about the Size of butter lipid droplets, Mean ([1]; astaxanthin dose 3.5 per 30 g of butter) of the same compound?
**A.** 12.2 µm

**Q.** What about the Size of butter lipid droplets, Mean ([1]; astaxanthin dose 7.0 per 30 g of butter) of the same compound?
**A.** 25 µm

**Q.** What about the Size of butter lipid droplets, Mean ([1]; astaxanthin dose 10.0 per 30 g of butter) of the same compound?
**A.** 34.1 µm

**Q.** What about the “Melting time of dark chocolate” value [2] of the same compound?
**A.** 5 min

**Q.** And the “Corneocyte desquamation levels at the end of the study” value ([3]; P=0.0075)?
**A.** clearly reduced in most volunteers

**Q.** What about the “Lipid droplet size, day 29 vs day 0” value ([3]; subgroup of obese subjects) of the same compound?
**A.** statistically significant (P=0.0214) increase

**Q.** And the “Lipid droplet size, day 29 vs day 0” value ([3]; whole group, P=0.0683)?
**A.** has not reached statistical significance

**Q.** What about the “Microbial presence in RSSC samples” value ([3]; whole volunteer group) of the same compound?
**A.** statistically significant (P=0.0367) decrease

**Q.** And the “Oil volume needed to cover the surface of the water” value [4]?
**A.** 15 mL

**Q.** And the “Size of pork fat globules, Mean” value ([5]; astaxanthin dose 0.1 per 30 g of pork fat)?
**A.** 5.687 μm

**Q.** What about the “Size of pork fat globules, Mean” value ([5]; astaxanthin dose 0.5 per 30 g of pork fat) of the same compound?
**A.** 4.937 μm

**Q.** What about the “Size of pork fat globules, Mean” value ([5]; astaxanthin dose 1.0 per 30 g of pork fat) of the same compound?
**A.** 5.333 μm

**Q.** What about the “Size of pork fat globules, Mean” value ([5]; astaxanthin dose 2.0 per 30 g of pork fat) of the same compound?
**A.** 6.812 μm

**Q.** What about the “Size of pork fat globules, Mean” value ([5]; astaxanthin dose 3.5 per 30 g of pork fat) of the same compound?
**A.** 8.307 μm

**Q.** And the “Size of pork fat globules, Mean” value ([5]; astaxanthin dose 7.0 per 30 g of pork fat)?
**A.** 7.9 μm

**Q.** What about the “Size of pork fat globules, Mean” value ([5]; astaxanthin dose 10.0 per 30 g of pork fat) of the same compound?
**A.** 8.692 μm

**Q.** What about the “Increase in the pork fat globules diameter” value ([5]; maximum doses) of the same compound?
**A.** 50%

**Q.** And the “Decrease of dairy butter viscosity from size of the spread drops” value [6]?
**A.** about 3

**Q.** What about the “Rate of heating of olive oil emulsion in water in the first 3 minutes” value ([7]; 50%:50%, 1 molecule lycopene to 67,000 or astaxanthin to 71,000 fatty acids, control 10° C.) of the same compound?
**A.** 23 °C

**Q.** What about the “Maximum temperature the emulsion could reach” value ([7]; water to olive oil 75%:25%, control 62° C.) of the same compound?
**A.** 90 °C

**Q.** What about the “Reduction of thawing time of Olive oil” value ([8]; 0.3 mg per 1 ml of the oil) of the same compound?
**A.** 11 fold

**Q.** What about the “Thawing time of frozen Olive oil” value ([8]; 0.3 mg per 1 ml of the oil, controls 60 (lycopene) and 48 seconds (astaxanthin)) of the same compound?
**A.** 4.3 s

**Q.** What about the “Reduction of thawing time of Sunflower oil” value ([8]; 0.3 mg per 1 ml the oil) of the same compound?
**A.** above 3 fold

**Q.** And the “Increase of beef fat globules diameter” value [9]?
**A.** 2.5 folds

**Q.** What about the “Reduction of melting time of dairy butter” value [10] of the same compound?
**A.** more than 3.5 fold

**Q.** What about the “Melting time of dairy butter” value ([10]; control 140 seconds) of the same compound?
**A.** 38 s

**Q.** With `CC1=C[C@H](O)CC(C)(C)[C@H]1/C=C/C(C)=C/C=C/C(C)=C/C=C/C=C(C)/C=C/C=C(C)/C=C/C1=C(C)C[C@@H](O)CC1(C)C` [Lutein, lutein] as the compound, how does the “Melting time of dark chocolate” value [2] read?
**A.** 6 min
